These results are taken from ChEMBL document CHEMBL1201862, “PubChem BioAssay data set” (2004).

Among the test systems are MCF7; HCT-116; CAKI-1; SN12C; TK-10; A549; SK-MEL-28; RXF 393; ACHN; IGROV-1; Hs-578T; NCI/ADR-RES; KM12; HCT-15; SNB-19; SF-539; SF-295; SW-620; HOP-92; NCI-H522.
Common to all, as to experiment: NCI anticancer screen, dose series, 48 h

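Tested at 5 concentrations; 48 h exposure; 96-well plates; endpoints linearly interpolated, else capped at highest concentration. Here, GI50 denotes the concentration required for 50% inhibition of growth.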 Calls of active or inactive are those of the source. Cut-off read from the data, not from the text of the source: active = GI50 up to about 1.1 µM and inactive = higher.

`Cc1nc(SCC(=O)Nc2ccc(Cl)cc2)c2sc(=S)n(-c3ccccc3)c2n1`: the GI50 with MCF7, in the assay on HCT-116, with CAKI-1, in the assay with SN12C, in the assay with TK-10 and in the assay on A549 was > 10 µM (inactive) throughout. For the same molecule, the GI50 in the assay with SK-MEL-28, in the assay with RXF 393, in the assay on ACHN, with IGROV-1, in the assay with Hs-578T and with NCI/ADR-RES was > 10 µM (inactive) in each case. Also, the GI50 in the assay with KM12 was > 10 µM (inactive); with HCT-15, above 10 µM; with SNB-19, > 10 µM (inactive); with SF-539, > 10 µM (inactive); with SF-295, > 10 µM (inactive); with SW-620, > 10 µM (inactive). Further, the values for the GI50 in the assay on HOP-92 and in the assay with NCI-H522 were 5.15 µM (inactive) and > 10 µM (inactive), respectively.

On to `CC(C)(Cl)C(Br)CC/C(=C/CBr)CBr.CC(C)(Cl)C(Br)CC/C(=C\CBr)CBr` (configuration not stated), for which the GI50 with MCF7 was 2.84 µM (inactive); in the assay on HCT-116, 1.79 µM (inactive); in the assay with SN12C, 2.49 µM (inactive); with TK-10 it was 4.1 µM (inactive); in the assay on A549 it was 12.5 µM (inactive); in the assay on SK-MEL-28, 3.2 µM (inactive). Besides, the GI50 with RXF 393 was 4.22 µM (inactive); with ACHN, 3.88 µM (inactive); with IGROV-1, 2.28 µM (inactive); with Hs-578T it was 4.69 µM (inactive); with NCI/ADR-RES it was 2.86 µM (inactive); in the assay on KM12, 2.36 µM (inactive). For the same molecule, the GI50 in the assay with HCT-15 is 1.95 µM; in the assay on SNB-19, 4.12 µM (inactive); in the assay on SF-539, 2.47 µM (inactive); in the assay on SF-295, 3.71 µM (inactive); in the assay on SW-620, 2.3 µM (inactive); in the assay on HOP-92, 2.03 µM (inactive). In the assay on NCI-H522, the GI50 was 1.68 µM (inactive).

With `COc1cc(C2SCC(=O)N2NC(=O)c2ccc(NC(C)=O)cc2OC)ccc1O` (configuration not stated), the GI50 was 51.5 µM (inactive) in the assay on MCF7; > 100 µM (inactive) in the assay on HCT-116; > 100 µM (inactive) with CAKI-1; 36.5 µM (inactive) with SN12C; 54.2 µM (inactive) with A549; > 100 µM (inactive) with SK-MEL-28. For the same molecule, the GI50 in the assay on RXF 393 is 39.3 µM (inactive); in the assay with ACHN, 63 µM (inactive); in the assay on IGROV-1, 58.2 µM (inactive); in the assay with Hs-578T, > 100 µM (inactive); in the assay with NCI/ADR-RES, 96.4 µM (inactive); with HCT-15, above 100 µM. Further, the GI50 was 30.3 µM (inactive) in the assay on SNB-19; 0.729 µM (active) in the assay on SF-539; 20.5 µM (inactive) in the assay with SF-295; > 100 µM (inactive) with SW-620; 29.4 µM (inactive) in the assay with HOP-92; > 100 µM (inactive) in the assay with NCI-H522.

Regarding `O=C(NCc1cccc(C(F)(F)F)c1)c1cc2sccc2nc1C(F)(F)F`, the GI50 in the assay with MCF7 was > 100 µM (inactive); in the assay with HCT-116 it was > 100 µM (inactive); with CAKI-1, 62.1 µM (inactive); in the assay with SN12C, 98.9 µM (inactive); in the assay on TK-10, 64 µM (inactive); in the assay with A549, > 100 µM (inactive). The GI50 with SK-MEL-28 is > 100 µM (inactive); in the assay on RXF 393, 27.7 µM (inactive); with ACHN, 38.7 µM (inactive); in the assay with IGROV-1 it was > 100 µM (inactive); in the assay on Hs-578T it was 26.9 µM (inactive); with NCI/ADR-RES, > 100 µM (inactive). Further, the GI50 in the assay on KM12 was > 100 µM (inactive); in the assay on SNB-19, 34.6 µM (inactive); with SF-539, 63.7 µM (inactive); in the assay with SF-295, 46.7 µM (inactive); with SW-620, > 100 µM (inactive); in the assay on HOP-92 it was 50.9 µM (inactive). Moreover, the GI50 in the assay on NCI-H522 was 62.7 µM (inactive).

In the case of `CCOC(=O)C(=CNC(=S)Nc1c(CC)cccc1CC)C(=O)OCC`, the GI50 in the assay with MCF7, in the assay on HCT-116, in the assay on CAKI-1, in the assay on SN12C, in the assay on TK-10 and in the assay on A549 was > 100 µM (inactive) throughout. The GI50 is > 100 µM (inactive) with SK-MEL-28; > 100 µM (inactive) with RXF 393; > 100 µM (inactive) with ACHN; > 100 µM (inactive) in the assay with IGROV-1; 80.7 µM (inactive) with Hs-578T; > 100 µM (inactive) with NCI/ADR-RES. Moreover, the GI50 in the assay on KM12 was > 100 µM (inactive); with SNB-19 it was > 100 µM (inactive); with SF-539 it was > 100 µM (inactive); in the assay with SF-295, > 100 µM (inactive); in the assay with SW-620, > 100 µM (inactive); in the assay on HOP-92 it was 94.4 µM (inactive). Moreover, the GI50 in the assay with NCI-H522 is > 100 µM (inactive).

For the molecule `OC(C1CO1)C(O)C1CO1` (configuration not stated), the GI50 in the assay with MCF7 was 11.7 µM (inactive); with HCT-116 it was 45.8 µM (inactive); in the assay on SN12C, 20.7 µM (inactive); with TK-10 it was 86.3 µM (inactive); in the assay with SK-MEL-28, 92.3 µM (inactive); in the assay on RXF 393, 56.1 µM (inactive). For the same molecule, the GI50 in the assay on ACHN is 4.04 µM (inactive); in the assay on IGROV-1, 68.1 µM (inactive); in the assay on Hs-578T it was 80.9 µM (inactive); in the assay on NCI/ADR-RES, 40.7 µM (inactive); with KM12 it was 87.9 µM (inactive); in the assay with HCT-15, 55.3 µM. Also, the GI50 with SNB-19 was 58.9 µM (inactive); in the assay with SF-539 it was 23.9 µM (inactive); with HOP-92 it was > 75.5 µM (inactive); in the assay on NCI-H522, 46.9 µM (inactive).

Take `COc1ccccc1CNC1=Nc2ccncc2S(=O)(=O)N1c1ccccc1`: the GI50 is 79.4 µM (inactive) in the assay on MCF7; 70.5 µM (inactive) with HCT-116; 63.8 µM (inactive) in the assay with CAKI-1; > 100 µM (inactive) with SN12C; > 100 µM (inactive) in the assay on TK-10; > 100 µM (inactive) in the assay with A549. Also, the GI50 in the assay with SK-MEL-28 was > 100 µM (inactive); with RXF 393 it was 2.47 µM (inactive); with ACHN it was > 100 µM (inactive); in the assay with IGROV-1, > 100 µM (inactive); in the assay on Hs-578T, 74.8 µM (inactive); with NCI/ADR-RES, 57.5 µM (inactive). Moreover, the GI50 in the assay with KM12 is 56.6 µM (inactive); in the assay with HCT-15, 49.7 µM; in the assay on SNB-19 it was > 100 µM (inactive); with SF-295, 41.1 µM (inactive); with SW-620, > 100 µM (inactive); with HOP-92 it was 39.7 µM (inactive). Moreover, the GI50 in the assay with NCI-H522 was 25.1 µM (inactive).

Regarding `c1ccc(C/C(=N\Nc2nc3ccccc3[nH]2)c2ccccn2)cc1`, the GI50 was < 0.01 µM (active) with MCF7; < 0.01 µM (active) in the assay on HCT-116; 0.056 µM (active) in the assay with CAKI-1; 0.0295 µM (active) in the assay with SN12C; 0.069 µM (active) in the assay on A549; 0.231 µM (active) in the assay with SK-MEL-28. Further, the GI50 with RXF 393 was 0.166 µM (active); with ACHN, 0.0131 µM (active); with IGROV-1, < 0.01 µM (active); in the assay with Hs-578T, 0.879 µM (active); in the assay on NCI/ADR-RES, < 0.0164 µM (active); in the assay with KM12 it was 0.16 µM (active). In addition, the GI50 in the assay with HCT-15 was below 0.01 µM; in the assay on SNB-19, 0.254 µM (active); in the assay with SF-539, 0.196 µM (active); in the assay with SF-295, 1.92 µM (inactive); in the assay on SW-620, < 0.01 µM (active); with HOP-92 it was 0.0206 µM (active). In the assay on NCI-H522, the GI50 was < 0.01 µM (active).

With `C=CCc1cc(C=C(C#N)C#N)cc(OC)c1O`, the GI50 was 53.1 µM (inactive) with MCF7; > 100 µM (inactive) with HCT-116; > 100 µM (inactive) with CAKI-1; > 100 µM (inactive) in the assay on TK-10; > 100 µM (inactive) with A549; > 100 µM (inactive) with SK-MEL-28. Moreover, the GI50 in the assay on RXF 393 was 24.8 µM (inactive); in the assay with ACHN, > 100 µM (inactive); in the assay with IGROV-1 it was > 100 µM (inactive); with Hs-578T, > 100 µM (inactive); in the assay on NCI/ADR-RES, > 100 µM (inactive); with KM12, > 100 µM (inactive). Besides, the GI50 in the assay on HCT-15 was 67.6 µM; with SNB-19, > 100 µM (inactive); with SF-539, > 100 µM (inactive); in the assay on SF-295, > 100 µM (inactive); in the assay on SW-620, 81.7 µM (inactive); in the assay with HOP-92, 33.5 µM (inactive). The GI50 with NCI-H522 is 90.6 µM (inactive).

Regarding `NCC1OC(OC2C(N)CC(N)C(O)C2OC2OC(CO)C(O)C2O)C(N)C(O)C1O` (configuration not stated), the GI50 in the assay on MCF7 is > 100 µM (inactive); in the assay on CAKI-1 it was > 100 µM (inactive); in the assay on SN12C it was > 50 µM (inactive); in the assay with TK-10 it was > 50 µM (inactive); in the assay on A549 it was > 100 µM (inactive); with SK-MEL-28 it was > 100 µM (inactive). Besides, the GI50 is > 50 µM (inactive) with RXF 393; > 50 µM (inactive) in the assay with ACHN; > 50 µM (inactive) in the assay on IGROV-1; > 100 µM (inactive) in the assay on Hs-578T; > 100 µM (inactive) in the assay with NCI/ADR-RES; > 50 µM (inactive) in the assay with KM12. The GI50 was above 100 µM with HCT-15; > 50 µM (inactive) in the assay on SNB-19; > 100 µM (inactive) with SF-539; > 100 µM (inactive) with SF-295; > 100 µM (inactive) in the assay on SW-620; > 50 µM (inactive) with HOP-92. For the same molecule, the GI50 with NCI-H522 is > 100 µM (inactive).

As for `Cn1ncc2c(Cl)ncnc21`, the GI50 in the assay with MCF7, with HCT-116, with CAKI-1, in the assay with SN12C, in the assay on TK-10 and in the assay on A549 was > 100 µM (inactive) each time. Further, the GI50 with SK-MEL-28, in the assay with RXF 393, with ACHN, with IGROV-1, in the assay on Hs-578T and in the assay on NCI/ADR-RES was > 100 µM (inactive) in each case. The GI50 with KM12 was > 100 µM (inactive); in the assay with HCT-15, above 100 µM; in the assay with SNB-19, > 100 µM (inactive); with SF-539 it was > 100 µM (inactive); in the assay on SF-295 it was > 100 µM (inactive); with SW-620, > 100 µM (inactive). Further, the GI50 in the assay with HOP-92 and in the assay with NCI-H522 was > 100 µM (inactive) each time.
